Earlier results on three compounds are cited in patent US20100249031A1, “Nutritional Composition Comprising Curcuminoids and Methods of Manufacture” (priority 2009, published 2010).

Structures are written as SMILES.

The conditions of series [1]: percentage of ingested curcuminoid metabolized by the body.
A further series has as its system Microtubule Assembly. To be noted: @ 40 μM.

For the compound `O=C(/C=C/c1ccc(O)cc1)CC(=O)/C=C/c1ccc(O)cc1` [BDMC, bisdemethoxycurcumin], the “Metabolic Recovery” value in series [1] was approximately 75%.

For the compound `COc1cc(/C=C/C(=O)CC(=O)/C=C/c2ccc(O)c(OC)c2)ccc1O` [Curcumin, curcumin], the “Inhibition of Microtubule Assembly” value in the series with Microtubule Assembly is recorded as 50% @.

As to `COc1cc(/C=C/C(O)=C/C(=O)/C=C/c2ccc(O)cc2)ccc1O` [DMC, demethoxycurcumin], in series [1], the “Metabolic Recovery” value is approximately 50%.
